# Read-outs that look alike come from different tables or passages of the source.
# How the values were obtained:
# [1] = target: T1, isolated GAFb domain of CyaB2 (residues Leu 270 to Leu 431, GST fusion) (Nostoc sp. PCC 7120 (Anabaena sp. PCC 7120), UniProt P94182); assay: Cyclic nucleotide binding assay (3H-cAMP competition), GST-GAFb
# T1 sequence (P94182 270-431): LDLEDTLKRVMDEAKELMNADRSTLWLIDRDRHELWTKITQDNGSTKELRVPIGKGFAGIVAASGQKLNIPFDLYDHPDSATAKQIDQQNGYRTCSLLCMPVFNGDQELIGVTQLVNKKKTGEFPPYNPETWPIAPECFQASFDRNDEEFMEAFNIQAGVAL
# [2] = target: T2, tandem GAFab domains of CyaB2 (residues S77 to L431, GST fusion) (Nostoc sp. PCC 7120 (Anabaena sp. PCC 7120), UniProt P94182); assay: biochemical; assay type: binding
# T2 sequence (P94182 77-431): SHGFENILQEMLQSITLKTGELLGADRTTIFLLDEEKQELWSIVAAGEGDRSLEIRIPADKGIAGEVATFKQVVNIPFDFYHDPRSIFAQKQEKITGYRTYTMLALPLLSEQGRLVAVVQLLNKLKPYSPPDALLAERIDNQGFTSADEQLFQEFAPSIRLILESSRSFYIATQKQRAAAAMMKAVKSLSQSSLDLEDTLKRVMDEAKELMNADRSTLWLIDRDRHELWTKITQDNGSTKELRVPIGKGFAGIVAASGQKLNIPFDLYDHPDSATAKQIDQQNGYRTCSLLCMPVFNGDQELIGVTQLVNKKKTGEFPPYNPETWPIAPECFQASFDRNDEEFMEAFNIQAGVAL
# [3] = test system: tandem GAFab domains of CyaB2 (residues S77 to L431, GST fusion); assay: biochemical; assay type: binding, Anabaena sp. PCC 7120; settings: tandem GAFab vs isolated GAFb
# [4] = test system: I308A mutant GAFb domain of CyaB2; assay type: binding, Anabaena sp. PCC 7120
# [5] = test system: T293A mutant GAFb domain of CyaB2; assay: Cyclic nucleotide binding assay, T293A mutant GAFb; parameters: species or system Anabaena sp. PCC 7120
# [6] = test system: GAFb sensor (GFP2-GAFb-Rluc); assay: In vitro BRET assay, GAFb sensor; assay type: biochemical, Anabaena sp. PCC 7120; settings: cell lysate, 1 mM cNMP, 37 °C 10 min
# PDE5 GAFa(F163A) sensor = target: T3, PDE5 GAFa(F163A) sensor (Homo sapiens, UniProt O76074, F205A); assay: In vitro BRET assay, PDE5 GAFa(F163A) sensor; assay type: biochemical; settings: cell lysate, 1 mM cNMP, 37 °C 10 min
# T3 construct: We used the F163A mutant GAFa domain of PDE5; expressed in transfected cells; host or cells: HEK293T lysate
# T3 sequence (O76074 148-315 F205A): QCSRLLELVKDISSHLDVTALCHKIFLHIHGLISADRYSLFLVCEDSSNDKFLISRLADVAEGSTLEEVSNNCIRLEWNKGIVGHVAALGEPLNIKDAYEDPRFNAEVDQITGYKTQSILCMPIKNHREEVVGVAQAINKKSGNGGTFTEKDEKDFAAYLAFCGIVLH
# [7] = test system: GAFab sensor (GFP2-GAFab-Rluc); assay: In vitro BRET assay, GAFab sensor; assay type: biochemical, Anabaena sp. PCC 7120; settings: cell lysate, 1 mM cNMP
# [8] = test system: NterGAFab sensor (GFP2-NterGAFab-Rluc); assay: In vitro BRET assay, NterGAFab sensor; assay type: biochemical, Anabaena sp. PCC 7120; settings: cell lysate, 1 mM cNMP
# [9] = test system: CyaB1-CyaB2 fusion protein; settings: read-out: EC50, cAMP-mediated activation of a related adenylyl cyclase domain; ref Bruder et al., 2005; cited from earlier work
# [10] = test system: HEK293T cells expressing the GAFb sensor; assay: Cellular BRET assay, GAFb sensor; assay type: cell-based, Human; settings: 100 µM; forskolin 5 min, SNP 2 min, 37 °C
# HEK293T cells = assay: Intracellular cNMP estimation by radioimmunoassay; assay type: cell-based, Human; settings: 100 µM forskolin, 5 min
# Experimental: Intracellular levels of cyclic nucleotide monophosphates (cNMP) were measured from the cells used for BRET measurements, or […] transfected and treated cells. Cells were lysed in 0.1 N HCl and cNMP was measured by radioimmunoassay as described earlier ([Bakre, […], 2000]).
SMILES,Kd [1] [µM],IC50 [2] [µM],fold higher affinity than the isolated GAFb domain [3] [fold],change in affinity vs wild type GAFb [4],change in affinity vs wild type GAFb [5],change in BRET ratio [6],change in BRET ratio (PDE5 GAFa(F163A) sensor),change in BRET [7],change in BRET [8],EC50 [9] [µM],"IC50 ([1]; isolated GAFb, ∼1 nM 3H-cAMP) [µM]","IC50 ([2]; tandem GAFab, ∼1 nM 3H-cAMP, read-out: IC50, competition with 3H-cAMP binding) [µM]",fold lower affinity compared to the isolated GAFb domain [3] [fold],change in BRET ratios in live cells [10],intracellular levels of cAMP (HEK293T cells)
"Nc1ncnc2c1ncn2[C@@H]1O[C@@H]2COP(=O)(O)O[C@H]2[C@H]1O [cAMP, adenosine 3′, 5′—cyclic monophosphate]",0.8 ± 0.2,0.05 ± 0.02,16,significant reduction in the affinity,no change in the affinity,no change in the BRET ratio,large increase in the BRET ratio,did not result in a significant alteration,did not result in a significant alteration,~1.3,,,,,
"Nc1nc2c(ncn2[C@@H]2O[C@@H]3COP(=O)(O)O[C@H]3[C@H]2O)c(=O)[nH]1 [cGMP, guanosine 3′, 5′—cyclic monophosphate]",,,,remained unaltered,reduction in the affinity,no change in the BRET ratio,large increase in the BRET ratio,did not result in a significant alteration,did not result in a significant alteration,,7.6 ± 1.9,2650,348,,
C=C[C@@]1(C)CC(=O)[C@]2(O)[C@@]3(C)[C@@H](O)CCC(C)(C)[C@@H]3[C@H](O)[C@H](OC(C)=O)[C@@]2(C)O1 [forskolin],,,,,,,,,,,,,,no significant changes,increased intracellular levels
